Assay results published in ChEMBL document CHEMBL5532709, “Discovery of Biofilm Inhibitors from the Microbiota of Marine Egg Masses” (J Nat Prod, 2024).
Active and inactive are the calls of the source. The calls are words filed in the database; no cut-off is given here.

Columns and labels:
Staphylococcus aureus [1] = test: Disruption of pre-formed biofilm of Staphylococcus aureus at 518 uM incubated for 16 to 20 hrs by crystal violet staining based analysis relative to control; type: functional; conditions: time 16-20 hrs
Isoptericola = test: Inhibition of biofilm formation of Isoptericola at 0.005 to 10 mg/ml incubated for 16 to 20 hrs by crystal violet staining based analysis; type: functional, organism-based
Staphylococcus aureus [2] = test: Inhibition of biofilm formation of Staphylococcus aureus incubated for 16 to 20 hrs by crystal violet staining based analysis; type: functional, organism-based
Staphylococcus aureus [3] = test: Inhibition of biofilm formation of Staphylococcus aureus at […] incubated for 16 to 20 hrs in presence of >6.25 uM FeCl3 by crystal violet staining based analysis; type: functional, organism-based; conditions: dose lower 88.0 mg/ml, time 16-20 hrs
Staphylococcus aureus [4] = test: Antibacterial activity against Staphylococcus aureus assessed as bacterial growth inhibition at 0.005 to 10 mg/ml incubated for 16 to 20 hrs by crystal violet staining based analysis; type: functional, organism-based; conditions: dose 0.005-10 mg/ml, time 16-20 hrs
Staphylococcus aureus [5] = test: Inhibition of biofilm formation of methicillin-resistant Staphylococcus aureus N315 at ~1 ug/ml incubated for 24 hrs by crystal violet staining based analysis relative to control; type: functional
Vibrio cholerae = test: Inhibition of biofilm formation of Vibrio cholerae incubated for 4.5 hrs by epifluorescence based assay; type: functional, organism-based

## O=C(NCCCC[C@@H]1CN=C(c2cccc(O)c2O)N1)c1cccc(O)c1O
Staphylococcus aureus [1]
  Activity: 30%
Isoptericola
  IC50: 50.6 µM
Staphylococcus aureus [2]
  IC50: 88.5 µM
Staphylococcus aureus [2]; time 16-20 hrs
  inhibition: Dose-Dependent Effect
Staphylococcus aureus [3]
  inhibition: inactive
Staphylococcus aureus [4]
  inhibition: inactive

## CCCCC1CCCCCCc2cc1c(/C=C1\N=C(c3ccc[nH]3)C=C1OC)[nH]2 (stereo not drawn) [STREPTORUBIN B]
Staphylococcus aureus [5]
  inhibition at 1 µg/mL: 70%

## C=C1Oc2cc(OC)cc(C(=O)OC)c2NC1=O
Vibrio cholerae
  IC50: 60.1 µM
